The results in this text go back to PubChem BioAssay AID330 (DTP/NCI, 2004).

“And” between values parts separate entries of the source, which are not always exact repeats. Identical values can stand only once. Inconclusive results and toxic doses are left out.

The test deals with P388 leukemia ip, CD2F1 mice, survival T/C. In words: NCI In Vivo Anticancer Drug Screen. Data for tumor model P388 Leukemia (intraperitoneal) in CD2F1 (CDF1) mice. The following applies: endpoint: median survival time, higher = longer survival. In a few lines:
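Mice carrying the transplanted tumor received test compound or vehicle. Survival was recorded in each group, and the value is the treated-group measurement divided by that of the vehicle-treated control group.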

Setting [1] is: dose: 12.5 mg/kg/injection, schedule: Q01DX009 (ip), vehicle: saline.
Setting [2] is: dose: 25.0 mg/kg/injection, schedule: Q01DX009 (ip), vehicle: saline.
Setting [3] is: dose: 25.0 mg/kg/injection, schedule: Q01DX005 (ip), vehicle: Klucel (hydroxypropylcellulose) (HPC).
The mark [4] stands for this setting: dose: 50.0 mg/kg/injection, schedule: Q01DX005 (ip), vehicle: Klucel (hydroxypropylcellulose) (HPC).
[5] abbreviates: dose: 100.0 mg/kg/injection, schedule: Q01DX005 (ip), vehicle: Klucel (hydroxypropylcellulose) (HPC).
Setting [6] is: dose: 200.0 mg/kg/injection, schedule: Q01DX005 (ip), vehicle: Klucel (hydroxypropylcellulose) (HPC).
The mark [7] stands for this setting: dose: 60.0 mg/kg/injection, schedule: Q01DX005 (ip), vehicle: saline with Tween-80.
The mark [8] stands for this setting: dose: 120.0 mg/kg/injection, schedule: Q01DX005 (ip), vehicle: saline with Tween-80.
[9] abbreviates: dose: 50.0 mg/kg/injection, schedule: Q01DX009 (ip), vehicle: saline.
Setting [10] is: dose: 240.0 mg/kg/injection, schedule: Q01DX005 (ip), vehicle: saline with Tween-80.
[11] abbreviates: dose: 15.0 mg/kg/injection, schedule: Q01DX005 (ip), vehicle: Klucel (hydroxypropylcellulose) (HPC).
[12] abbreviates: dose: 50.0 mg/kg/injection, schedule: Q01DX005 (ip), vehicle: saline with Tween-80.
Where [13] appears, read: dose: 100.0 mg/kg/injection, schedule: Q01DX005 (ip), vehicle: saline with Tween-80.

In the case of `O=NN(CCCl)C(=O)Nc1ccccc1`, the T/C by setting is: (dose: 0.5 mg/kg/injection, schedule: Q04DX003 (ip), vehicle: saline with Tween-80) 200 % of control; (dose: 1.25 mg/kg/injection, schedule: Q04DX003 (ip), vehicle: saline with Tween-80) 150 % of control; (dose: 2.5 mg/kg/injection, schedule: Q04DX003 (ip), vehicle: saline with Tween-80) 179 % of control; (dose: 5.0 mg/kg/injection, schedule: Q04DX003 (ip), vehicle: saline with Tween-80) 233 % of control; (dose: 6.25 mg/kg/injection, schedule: Q01DX009 (ip), vehicle: saline) 227 % of control; under setting [1], 118 % of control. The T/C was 250 % of control (dose: 12.5 mg/kg/injection, schedule: Q04DX003 (ip), vehicle: saline with Tween-80); 95 % of control under setting [2]; 91 % of control (dose: 25.0 mg/kg/injection, schedule: Q04DX003 (ip), vehicle: saline with Tween-80).

For `c1ccc2nc3ccccc3nc2c1`, the T/C reads like this: under setting [3], 109 % of control; under setting [4], 104 % of control; under setting [5], 104 % of control; under setting [6], 104 % of control.

`CCOC(=O)C1Cc2c(n(C3CCCCC3)c(=O)n(C)c2=O)OC1c1ccccc1` (configuration not stated): the T/C by setting is: under setting [4], 100 % of control; under setting [5], 96 % of control; under setting [6], 90 % of control.

`COc1cc2c(c3c1c(=O)c1ccccc1n3C)C=C([N+](=O)[O-])C(C)(C)O2`: the T/C is 116 % of control (dose: 3.0 mg/kg/injection, schedule: Q01DX005 (ip), vehicle: saline + Tween-80 + alcohol); 116 % of control (dose: 6.0 mg/kg/injection, schedule: Q01DX005 (ip), vehicle: saline + Tween-80 + alcohol); 108 % of control (dose: 12.0 mg/kg/injection, schedule: Q01DX005 (ip), vehicle: saline + Tween-80 + alcohol).

Turning to `O=C(O)c1cccc2c1-c1ccccc1C2=O`, the T/C was 94 % of control (dose: 12.5 mg/kg/injection, schedule: Q01DX005 (ip), vehicle: Klucel (hydroxypropylcellulose) (HPC)); 99 % of control under setting [3]; 97 % of control under setting [4]; 100 % of control under setting [5]; 103 % of control under setting [6].

`CC1(C)c2ccccc2N2C(c3ccccc3)=NN(c3ccccc3)C21C` (configuration not stated): the T/C is 100 % of control under setting [7] and 100 % of control under setting [8].

For the molecule `O=C(O)CC(=O)O.[NH-]CC[NH-].[Pt+2]`, the T/C is 111 % of control (dose: 6.25 mg/kg/injection, schedule: Q04DX002 (ip), vehicle: saline with Tween-80); 211 % of control under setting [2]; 158 % of control (dose: 25.0 mg/kg/injection, schedule: Q04DX002 (ip), vehicle: saline with Tween-80); 94 % of control under setting [9].

Consider `COc1ccc2c(c1)c(CO)c(CO)c[n+]2[O-]`, for which the T/C is 100 % of control under setting [7], 96 % of control under setting [8] and 102 % of control under setting [10].

Take `CC(=O)OCCOCNC(=S)NN`: the T/C by setting is: under setting [7], 101 % of control; under setting [8], 101 % of control; under setting [10], 90 % of control.

As for `N#Cc1c(-c2ccc(Cl)cc2)cn2c1[nH]c(=O)c1cc(Br)ccc12`, the T/C was 99 % of control under setting [7], 102 % of control under setting [8] and 95 % of control under setting [10].

In the case of `CC1(CCl)Nc2ccccc2C(=O)N1c1ccccc1` (configuration not stated), the T/C is 99 % of control (dose: 50.0 mg/kg/injection, schedule: Q01DX009 (ip), vehicle: saline with Tween-80); 97 % of control (dose: 100.0 mg/kg/injection, schedule: Q01DX009 (ip), vehicle: saline with Tween-80); 88 % of control (dose: 200.0 mg/kg/injection, schedule: Q01DX009 (ip), vehicle: saline with Tween-80).

`O=c1c2sc3ccccc3c2ncn1CN1CCOCC1`: the T/C was 112 % of control under setting [4], 121 % of control under setting [5] and 118 % of control under setting [6].

Turning to `COc1ccc(C2CC(=O)NC2=O)cc1OC` (configuration not stated), the T/C runs as follows: under setting [7], 96 % of control; under setting [8], 92 % of control; under setting [10], 97 % of control.

Take `Cn1cc(C2=C(Cl)C(=O)N(c3cc(Cl)cc(Cl)c3)C2=O)c(=O)n(C)c1=O`: the T/C was 99 % of control under setting [11]; 99 % of control (dose: 30.0 mg/kg/injection, schedule: Q01DX005 (ip), vehicle: Klucel (hydroxypropylcellulose) (HPC)); 111 % of control (dose: 60.0 mg/kg/injection, schedule: Q01DX005 (ip), vehicle: Klucel (hydroxypropylcellulose) (HPC)).

For `O=C1c2ccccc2C(Cl)=C(Cl)C1(Cl)Cl`, the T/C was 104 % of control (dose: 12.5 mg/kg/injection, schedule: Q01DX009 (ip), vehicle: saline with Tween-80) and 90 % of control (dose: 25.0 mg/kg/injection, schedule: Q01DX009 (ip), vehicle: saline with Tween-80).

Turning to `CCCCC1(C2c3ccccc3Oc3ccccc32)C(=O)N(c2ccccc2)N(c2ccccc2)C1=O`, the T/C by setting is: under setting [7], 98 % of control; under setting [8], 93 % of control; under setting [10], 90 % of control.

Consider `O=C1C=Cn2cc(-c3ccccc3)c(-c3ccccc3)c21`, for which the T/C under setting [4] was 96 % of control, the T/C under setting [5] was 97 % of control and the T/C under setting [6] is 95 % of control.

For the molecule `Cc1ccc(NC(=O)CCC(=O)C(C)C(=O)c2ccccc2)cc1C` (configuration not stated), the T/C was 105 % of control under setting [7], 105 % of control under setting [8] and 109 % of control under setting [10].

`O=c1[nH]c(Br)nc2nc[nH]c12`: the T/C by setting is: under setting [12], 93 % of control; under setting [13], 94 % of control; (dose: 200.0 mg/kg/injection, schedule: Q01DX005 (ip), vehicle: saline with Tween-80) 92 % of control.

Regarding `CN(C)c1ccc(/C=N/NC(=O)c2ccccc2NC(=O)c2ccccc2Cl)cc1`, the T/C runs as follows: (dose: 7.5 mg/kg/injection, schedule: Q01DX005 (ip), vehicle: Klucel (hydroxypropylcellulose) (HPC)) 86 % of control; under setting [11], 86 % of control.

For the molecule `CS(C)=Nc1ccc(Cl)cc1`, the T/C (dose: 100.0 mg/kg/injection, schedule: Q01DX001 (ip), vehicle: saline) was 109 % of control.

Take `Cc1cc(-c2ccc(N3C(=O)CC4(CCCCC4)C3=O)c(C)c2)ccc1N1C(=O)CC2(CCCCC2)C1=O`: the T/C (dose: 100.0 mg/kg/injection, schedule: Q04DX003 (ip), vehicle: Klucel (hydroxypropylcellulose) (HPC)) was 90 % of control and the T/C (dose: 200.0 mg/kg/injection, schedule: Q04DX003 (ip), vehicle: Klucel (hydroxypropylcellulose) (HPC)) was 90 % of control.

In the case of `COC(=O)[CH2][Sn]([CH2]C(=O)OC)([CH]1CCCCC1)[CH]1CCCCC1`, the T/C was 104 % of control (dose: 1.56 mg/kg/injection, schedule: Q01DX005 (ip), vehicle: Klucel (hydroxypropylcellulose) (HPC)); 88 % of control (dose: 3.12 mg/kg/injection, schedule: Q01DX005 (ip), vehicle: Klucel (hydroxypropylcellulose) (HPC)); 111 % of control and 88 % of control (dose: 6.25 mg/kg/injection, schedule: Q01DX005 (ip), vehicle: Klucel (hydroxypropylcellulose) (HPC)).

For `COC(=O)Nc1nc2ccc(C(=O)C3CC3)cc2[nH]1`, the T/C runs as follows: (dose: 12.5 mg/kg/injection, schedule: Q01DX005 (ip), vehicle: saline with Tween-80) 111 % of control; (dose: 25.0 mg/kg/injection, schedule: Q01DX005 (ip), vehicle: saline with Tween-80) 108 % of control; under setting [12], 117 % of control; under setting [13], 180 % of control.

With `CCCC[As](CCCC)SC1CC(OC(=O)c2ccccc2)C(OC(=O)c2ccccc2)C(COC(=O)c2ccccc2)O1` (configuration not stated), the T/C is 108 % of control (dose: 6.25 mg/kg/injection, schedule: Q01DX009 (ip), vehicle: saline + alcohol); 95 % of control (dose: 12.5 mg/kg/injection, schedule: Q01DX009 (ip), vehicle: saline + alcohol); 105 % of control (dose: 25.0 mg/kg/injection, schedule: Q01DX009 (ip), vehicle: saline + alcohol); 100 % of control (dose: 50.0 mg/kg/injection, schedule: Q01DX009 (ip), vehicle: saline + alcohol).

On to `Cc1cn(C2CC(F)C(CO)O2)c(=O)[nH]c1=O` (configuration not stated), for which the T/C was 106 % of control under setting [1]; 101 % of control and 103 % of control under setting [2]; 100 % of control and 110 % of control under setting [9]; 101 % of control and 119 % of control (dose: 100.0 mg/kg/injection, schedule: Q01DX009 (ip), vehicle: saline); 101 % of control (dose: 200.0 mg/kg/injection, schedule: Q01DX009 (ip), vehicle: saline); 116 % of control (dose: 400.0 mg/kg/injection, schedule: Q01DX009 (ip), vehicle: saline).
